What was measured:
Canis familiaris = organism: Canis familiaris; experiment: Compound was evaluated for the mean locomotor activity ([…]) by the difference in the counts between postinjection and preinjection activities.; type: functional, Canis lupus familiaris
[1] = Half-life determined in the urine of dog; type: ADME, organism-based, Canis lupus familiaris
[2] = Half-life determined in the urine of monkey; type: ADME; details: simiiformes

SMILES: Cl.O=C(O)CCCCNC1(c2ccccc2)CCCCC1
- Activity (Canis familiaris): -1063

SMILES: COC(=O)CCCCNC1(c2ccccc2)CCCCC1.Cl
- Activity (Canis familiaris): -1418

SMILES: Cl.O=C(O)CCCCNC1(c2ccccc2)CCCCC1.c1ccc(C2(N3CCCCC3)CCCCC2)cc1
- Activity (Canis familiaris): 2478

SMILES: COC(=O)CCCCNC1(c2ccccc2)CCCCC1.Cl.c1ccc(C2(N3CCCCC3)CCCCC2)cc1
- Activity (Canis familiaris): 2388

SMILES: Cl.c1ccc(C2(N3CCCCC3)CCCCC2)cc1 [PHENCYCLIDINE HYDROCHLORIDE]
- Activity (Canis familiaris): 3062
- half-life [1]: 2.86 h
- half-life [2]: 2.36 h
